Here are results for 23 compounds from patent publication US10208046B2, “Nitrogen-containing heterocyclic compound” (Takeda Pharmaceutical Company Limited, priority 2014, dated 2019).

This test concerns the target T1, human M1 receptor (hCHRM1) (Homo sapiens, UniProt P11229).
T1 construct: expressed in transfected cells
T1 sequence (P11229 1-460): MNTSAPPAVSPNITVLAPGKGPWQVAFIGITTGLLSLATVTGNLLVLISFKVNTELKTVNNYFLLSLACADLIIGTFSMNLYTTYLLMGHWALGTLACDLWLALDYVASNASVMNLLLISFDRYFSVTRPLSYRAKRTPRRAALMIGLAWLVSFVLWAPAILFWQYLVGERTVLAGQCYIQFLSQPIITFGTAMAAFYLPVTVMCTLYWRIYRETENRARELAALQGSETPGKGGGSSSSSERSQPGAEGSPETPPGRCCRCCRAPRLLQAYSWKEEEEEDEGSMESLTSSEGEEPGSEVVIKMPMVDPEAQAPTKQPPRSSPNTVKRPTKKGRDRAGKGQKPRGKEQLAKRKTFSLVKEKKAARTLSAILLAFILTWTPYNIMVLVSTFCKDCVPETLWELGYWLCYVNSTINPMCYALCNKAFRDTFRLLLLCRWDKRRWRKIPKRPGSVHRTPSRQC
Briefly: Measurement of M1 receptor positive allosteric modulator (M1PAM) activity, calcium fluorescence in CHO-K1 cells.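 As to EC50: potency reported as IP value in nM.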 The note with it: for activity (%) at 10 μM: 10 μM test compound with acetylcholine at EC20, 100% = acetylcholine 1 μM, 0% = DMSO; for EC50: inflection point in the concentration-dependent curve, acetylcholine at EC20 (final 0.6-0.8 nM), CHO-K1 cells expressing human M1, Fluo-4, FLIPRtetra, read-out: IP value. Type of test: cell-based. The protocol:
Measurement of M1 Receptor Positive Allosteric Modulator (M1PAM) Activity
The activity of a test compound in the presence of acetylcholine at EC20 concentration (final concentration 0.6-0.8 nM), which affords an action corresponding to about 20% of the maximum activity, was measured as PAM activity. The method is as follows. CHO-K1 cells stably expressing a human M1 receptor (hCHRM1) were plated on a 384-well black clear bottom plate (BD Falcon) at 5,000 cells/well, and cultured in an incubator at 37° C., 5% CO2 for 1 day. The medium in the cell plate was removed, and assay buffer A containing calcium indicator (Recording medium (DOJINDO LABORATORIES), 0.1% BSA (Wako Pure Chemical Industries, Ltd.), 2.5 μg/mL Fluo-4 AM (DOJINDO LABORATORIES), 0.08% Pluronic F127 (DOJINDO LABORATORIES), 1.25 mM probenecid (DOJINDO LABORATORIES)) was added at 30 μL/well. The cells were left standing in the incubator at 37° C., 5% CO2 for 30 min, and further left standing at room temperature for 30 min. A test compound prepared by diluting with assay buffer B (HBSS (Invitrogen), 20 mM HEPES (Invitrogen), 0.1% BSA) containing 2.4-3.2 nM acetylcholine was added at 10 μL/well, and the fluorescence was measured by FLIPRtetra (Molecular Devices) for 1 min every 1 second. With the definition that the amount of change in the fluorescence on addition of acetylcholine (final concentration 1 μM) is 100% and that on addition of DMSO instead of a test compound is 0%, the activity (%) of the test compound was calculated, and the inflection point in the concentration-dependent curve of the test compound was calculated as IP values.

Regarding `CCn1cc(-c2ccc(CN3Cc4ncnc(OCC(C)(F)F)c4C3=O)cc2)cn1` [Example 1, 4-(2,2-difluoropropoxy)-6-(4-(1-ethyl-1H-pyrazol-4-yl)benzyl)-6,7-dihydro-5H-pyrrolo[3,4-d]pyrimidin-5-one], the “activity (%) at 10 μM” value is 91% and the EC50 was 0.017 µM.

As to `CCn1cc(-c2ccc(CN3Cc4ncnc(OCC(F)F)c4C3=O)cc2)cn1` [Example 2, 4-(2,2-difluoroethoxy)-6-(4-(1-ethyl-1H-pyrazol-4-yl)benzyl)-6,7-dihydro-5H-pyrrolo[3,4-d]pyrimidin-5-one], the “activity (%) at 10 μM” value worked out at 108% and the EC50 is 0.031 µM.

Regarding `CCn1cc(-c2ccc(CN3Cc4ncnc(OCC(C)(F)F)c4C3=O)c(F)c2)cn1` [Example 3, 4-(2,2-difluoropropoxy)-6-(4-(1-ethyl-1H-pyrazol-4-yl)-2-fluorobenzyl)-6,7-dihydro-5H-pyrrolo[3,4-d]pyrimidin-5-one], the “activity (%) at 10 μM” value was 103% and the EC50 came to 0.0089 µM.

Take `CCn1cc(-c2ccc(CN3Cc4ncnc(OCC(F)F)c4C3=O)c(F)c2)cn1` [Example 4, 4-(2,2-difluoroethoxy)-6-(4-(1-ethyl-1H-pyrazol-4-yl)-2-fluorobenzyl)-6,7-dihydro-5H-pyrrolo[3,4-d]pyrimidin-5-one]: the “activity (%) at 10 μM” value is 99% and the EC50 came to 0.0087 µM.

Turning to `Cc1nn(C)cc1-c1ccc(CN2Cc3ncnc(OCC(C)(C)F)c3C2=O)cc1` [Example 5, 6-(4-(1,3-dimethyl-1H-pyrazol-4-yl)benzyl)-4-(2-fluoro-2-methylpropoxy)-6,7-dihydro-5H-pyrrolo[3,4-d]pyrimidin-5-one], the “activity (%) at 10 μM” value was 105% and the EC50 stood at 0.017 µM.

`CCC(F)(F)COc1nccc2c1C(=O)N(Cc1ccc(-c3cn(C)nc3C)cc1F)C2` [Example 7, 4-(2,2-difluorobutoxy)-2-(4-(1,3-dimethyl-1H-pyrazol-4-yl)-2-fluorobenzyl)-1,2-dihydro-3H-pyrrolo[3,4-c]pyridin-3-one]: the “activity (%) at 10 μM” value was 90% and the EC50 was 0.0091 µM.

Regarding `CCC(F)(F)COc1ncnc2c1C(=O)N(Cc1ccc(-c3cn(C)nc3C)cc1)C2` [Example 8, 4-(2,2-difluorobutoxy)-6-(4-(1,3-dimethyl-1H-pyrazol-4-yl)benzyl)-6,7-dihydro-5H-pyrrolo[3,4-d]pyrimidin-5-one], the “activity (%) at 10 μM” value is 109% and the EC50 turned out to be 0.023 µM.

For `Cn1ccc(-c2ccc(CN3Cc4ncnc(OCC(F)(F)F)c4C3=O)c(F)c2)n1` [Example 9, 6-(2-fluoro-4-(1-methyl-1H-pyrazol-3-yl)benzyl)-4-(2,2,2-trifluoroethoxy)-6,7-dihydro-5H-pyrrolo[3,4-d]pyrimidin-5-one], the “activity (%) at 10 μM” value amounted to 102% and the EC50 turned out to be 0.077 µM.

Regarding `CCC(F)(F)COc1ncnc2c1C(=O)N(Cc1ccc(C(=O)NC)cc1)C2` [Example 10, 4-((4-(2,2-difluorobutoxy)-5-oxo-5,7-dihydro-6H-pyrrolo[3,4-d]pyrimidin-6-yl)methyl)-N-methylbenzamide], the “activity (%) at 10 μM” value is on record as 103% and the EC50 was determined as 0.033 µM.

Take `Cc1cc(-c2ccc(CN3Cc4ncnc(OCC(F)(F)F)c4C3=O)cc2)ccn1` [Example 11, 6-(4-(2-methylpyridin-4-yl)benzyl)-4-(2,2,2-trifluoroethoxy)-6,7-dihydro-5H-pyrrolo[3,4-d]pyrimidin-5-one]: the “activity (%) at 10 μM” value was 87% and the EC50 was 0.023 µM.

Turning to `CC(F)(F)COc1nccc2c1C(=O)N(Cc1ccc(-c3cnn(CC(F)(F)F)c3)cc1)C2` [Example 12, 4-(2,2-difluoropropoxy)-2-(4-(1-(2,2,2-trifluoroethyl)-1H-pyrazol-4-yl)benzyl)-1,2-dihydro-3H-pyrrolo[3,4-c]pyridin-3-one], the “activity (%) at 10 μM” value was found to be 97% and the EC50 was determined as 0.059 µM.

As for `CC(F)(F)COc1nccc2c1C(=O)N(Cc1ccc(-c3cnn(CC(F)F)c3)cc1)C2` [Example 13, 2-(4-(1-(2,2-difluoroethyl)-1H-pyrazol-4-yl)benzyl)-4-(2,2-difluoropropoxy)-1,2-dihydro-3H-pyrrolo[3,4-c]pyridin-3-one], the “activity (%) at 10 μM” value was determined as 100% and the EC50 turned out to be 0.055 µM.

With `Cn1cc2cc(-c3ccc(CN4Cc5ccnc(OCC(C)(F)F)c5C4=O)cc3)ccc2n1` [Example 14, 4-(2,2-difluoropropoxy)-2-(4-(2-methyl-2H-indazol-5-yl)benzyl)-1,2-dihydro-3H-pyrrolo[3,4-c]pyridin-3-one], the “activity (%) at 10 μM” value amounted to 88% and the EC50 is 0.051 µM.

On to `Cc1nn(C)cc1-c1cc(F)c(CN2Cc3ncnc(OCC(F)F)c3C2=O)s1` [Example 15, 4-(2,2-difluoroethoxy)-6-((5-(1,3-dimethyl-1H-pyrazol-4-yl)-3-fluoro-2-thienyl)methyl)-6,7-dihydro-5H-pyrrolo[3,4-d]pyrimidin-5-one], for which the “activity (%) at 10 μM” value came to 100% and the EC50 is 0.016 µM.

For `Cn1cc(-c2ccc(CN3Cc4ccnc(OCCC(F)(F)F)c4C3=O)c(F)c2)nn1` [Example 16, 2-(2-fluoro-4-(1-methyl-1H-1,2,3-triazol-4-yl)benzyl)-4-(3,3,3-trifluoropropoxy)-1,2-dihydro-3H-pyrrolo[3,4-c]pyridin-3-one], the “activity (%) at 10 μM” value was found to be 111% and the EC50 came out at 0.085 µM.

For the compound `CC(F)(F)COc1nccc2c1C(=O)N(Cc1ccc(-c3cnn(C4CC4)c3)cc1)C2` [Example 17, 2-(4-(1-cyclopropyl-1H-pyrazol-4-yl)benzyl)-4-(2,2-difluoropropoxy)-1,2-dihydro-3H-pyrrolo[3,4-c]pyridin-3-one], the “activity (%) at 10 μM” value was found to be 99% and the EC50 came to 0.095 µM.

For `Cc1nn(C)cc1-c1ccc(CN2Cc3ccnc(OCC(F)(F)C(F)F)c3C2=O)cc1` [Example 18, 2-(4-(1,3-dimethyl-1H-pyrazol-4-yl)benzyl)-4-(2,2,3,3-tetrafluoropropoxy)-1,2-dihydro-3H-pyrrolo[3,4-c]pyridin-3-one], the “activity (%) at 10 μM” value came to 102% and the EC50 stood at 0.28 µM.

For `CCC(F)(F)COc1nccc2c1C(=O)N(Cc1ccc(-c3cnnc(C)c3)cc1)C2` [Example 19, 4-(2,2-difluorobutoxy)-2-(4-(6-methylpyridazin-4-yl)benzyl)-1,2-dihydro-3H-pyrrolo[3,4-c]pyridin-3-one], the “activity (%) at 10 μM” value is 98% and the EC50 worked out at 0.24 µM.

In the case of `CC(F)(F)COc1nccc2c1C(=O)N(Cc1ccc(-c3ccns3)cc1)C2` [Example 20, 4-(2,2-difluoropropoxy)-2-(4-(1,2-thiazol-5-yl)benzyl)-1,2-dihydro-3H-pyrrolo[3,4-c]pyridin-3-one], the “activity (%) at 10 μM” value was found to be 91% and the EC50 worked out at 0.36 µM.

For `CC(F)(F)COc1nccc2c1C(=O)N(Cc1ccc(-c3ccoc3)cc1F)C2` [Example 21, 4-(2,2-difluoropropoxy)-2-(2-fluoro-4-(3-furyl)benzyl)-1,2-dihydro-3H-pyrrolo[3,4-c]pyridin-3-one], the “activity (%) at 10 μM” value was 101% and the EC50 turned out to be 0.29 µM.

Turning to `CCn1cc(-c2ccc(CN3Cc4ncnc(OCC(F)(F)CC)c4C3=O)s2)cn1` [Example 30, 4-(2,2-difluorobutoxy)-6-((5-(1-ethyl-1H-pyrazol-4-yl)-2-thienyl)methyl)-6,7-dihydro-5H-pyrrolo[3,4-d]pyrimidin-5-one], the “activity (%) at 10 μM” value is recorded as 103% and the EC50 is 0.096 µM.

As to `Cc1nn(C)cc1-c1ccc(CN2Cc3ncnc(OCC(F)F)c3C2=O)s1` [Example 34, 4-(2,2-difluoroethoxy)-6-((5-(1,3-dimethyl-1H-pyrazol-4-yl)-2-thienyl)methyl)-6,7-dihydro-5H-pyrrolo[3,4-d]pyrimidin-5-one], the “activity (%) at 10 μM” value worked out at 100% and the EC50 was determined as 0.077 µM.

On to `CCn1cc(-c2ccc(CN3Cc4ncnc(OCC(F)(F)F)c4C3=O)c(F)c2)cn1` [Example 35, 6-(4-(1-ethyl-1H-pyrazol-4-yl)-2-fluorobenzyl)-4-(2,2,2-trifluoroethoxy)-6,7-dihydro-5H-pyrrolo[3,4-d]pyrimidin-5-one], for which the “activity (%) at 10 μM” value turned out to be 98% and the EC50 amounted to 0.027 µM.
